Patent US20090285899A1, “COMBINATION OF DEHYDROEPIANDROSTERONE OR DEHYDROEPIANDROSTERONE-SULFATE WITH A METHYLXANTHINE DERIVATIVE FOR TREATMENT OF ASTHMA OR CHRONIC OBSTRUCTIVE PULMONARY DISEASE” (priority 2003, published 2009)
Several values for one entry are separate records, joined by “and”; a condition that tells them apart may be missing. Equal entries are not always repeated. Where two headings read alike, the source gives them in different places.

Columns and labels:
Solubility of DHEA-S = format: physicochemical
Source text: Inhalation of pure water can produce a cough stimulus. […] The temperature effect is weaker at high NaCl concentrations.

[1] = Short-term solution stability of DHEA-S nebulizer formulation; format: physicochemical; settings: 10 mg/mL in 0.12% NaCl, RT (24-26° C.)
Method: Aliquots of this solution are filled into clear glass vials and stored at RT (24-26° C.) and at 40° C. The samples are checked daily for DHEA-S content, DHEA content, and appearance. For each time point, duplicate samples are withdrawn and diluted from each vial. […] The study is stopped on day three. […] The solution should easily be stable for the day of reconstitution in a clinical trial. The following section describes the aerosol properties of this formulation.

Human ASM cells = test: [3H]-thymidine incorporation (DNA synthesis) in human airway smooth muscle cells; format: cell-based; settings: alone or in combinations
Source text: Human ASM cells were obtained from the distal trachea of transplant donors in compliance with the University of Pennsylvania's Institutional Review Board. Distal trachealis was dissected free of connective tissue and enzymatically digested to yield approximately 1×10^4 human ASM cells. […] The cells were scraped and placed on filters which were then counted using a beta counter. All experiments were repeated in a minimum of three human ASM cell lines. All conditions per experiment were run with six replicates.
There are three classes of commonly used anti-asthma medications that alter cAMP concentrations and/or adenosine concentrations. These classes of drugs are: methylxanthines, beta-agonists and phosphodiesterase inhibitors. For each of these drug classes, isobutylmethylxanthine (IBMX) was used as the tool compound to inhibit smooth muscle proliferation.

HT-29 SF cells [2] = test: Reversal of DHEA-mediated growth inhibition; format: cell-based, human; settings: 25 μM DHEA, 48 hours of treatment
Intracellular adenosine = format: in vivo, rat
Method: Folinic acid (50 mg/kg) was administered intraperitoneally once daily for fourteen days. […] Hearts were removed from animals and flash frozen in liquid nitrogen with 10 s of death. Liver and lungs were removed en bloc and flash frozen with […]. Brain tissue was subsequently dissected.

[3] = Physicochemical testing of DHEA-S dihydrate before and after micronization; settings: for Water: Karl Fischer
Method: Surface area is determined using five point BET analyses are performed with nitrogen as the adsorbing gas (P/Po=0.05 to 0.30) using a Micromeritics TriStar surface area analyzer. Particle size distributions are measured by laser diffraction using a Micromeritics Saturn Digisizer where the particles are suspended in mineral oil with sodium dioctyl sodium sulfosuccinate as a dispersing agent. Drug substance water content is measured by Karl Fischer titration (Schott Titroline KF). Pure water is used as the standard and all relative standard deviations for triplicates are less than 1%. Powder is added directly to the titration media.

[4] = Particle size of jet-milled / spray-dried DHEA-S (Malvern Mastersizer X, light microscope); format: physicochemical; settings: double pass through the jet mill
Method: Approximately 1 g sample was passed through the jet mill, once, and approximately 2 g sample were passed through the jet mill twice. […] The resulting solution was sonicated for 3 minutes and appeared fully dispersed. The dispersed solutions were tested on a Malvern Mastersizer X with a small volume sampler (SVS) attachment. One sample of dispersed material was tested 5 times. The median particle size or D (v, 0.5) of unmilled material was 52.56 μm and the % RSD (relative standard deviation) was 7.61 for the 5 values. The D (v, 0.5) for a single pass through the jet mill was 3.90 μm and the % RSD was 1.27, and the D (v, 0.5) from a double pass through the jet mill […] and the % RSD was 3.10.
The solution was spray-dried with a B-191 Mini Spray-Drier (Buchi, Flawil, Switzerland) with an inlet temperature of 55° C., outlet temperature of 40° C., at 100% aspirator, at 10% pump, nitrogen flow at 40 mbar and spray flow at 600 units. The spray-dried product was suspended in hexane and Span85 surfactant added to reduce agglomeration. The dispersions were sonicated with cooling for 3-5 minutes for complete dispersion and the dispersed solutions tested on a Malvern Mastersizer X with a Small Volume Sampler (SVS) attachment. […] Visual examination by light microscope of the dispersions of each batch confirmed that spray drying produced small respirable size particles. […]

HT-29 SF cells [5] = test: Reversal of DHEA effect on cell cycle; format: cell-based, human; settings: 25 FM DHEA
HT-29 SF cells [6] = test: DHEA effect on cell cycle (flow cytometry); format: cell-based, human; settings: 25-200 μM, 24-72 hours
Method: Cells were plated at 10^5/60-mm dish in duplicate. […] Cultures were trypsinized following 0, 24, 48, or 74 hours and fixed and stained using a modification of a procedure of Bauer et al., Cancer Res. 46, 3173-3178 (1986). Briefly, cells were collected by centrifugation and resuspended in cold phosphate-buffered saline. Cells were fixed in 70% ethanol, washed, and resuspended in phosphate-buffered saline.
After 24, 48, and 72 hours, cells were harvested, fixed in ethanol, and stained with propidium iodide, and the DNA content/cell was determined by flow cytometric analysis. The percentage of cells in G1, S, and G2M phases was calculated using the Cellfit cell cycle analysis program. S phase is marked by a quadrangle for clarity. Representative histograms from duplicate determinations are shown. The experiment was repeated three times.

HT-29 SF cells [7] = test: DHEA effect on cell growth; settings: 12.5-200 μM, 24-72 hours
Method: Cell cultures, HT-29 SF cells, which represent a subline of HY-29 cells (ATCC, Rockville, Md.) and are adapted for growth in completely defined serum-free PC-1 medium (Ventrex, Portland, Me.), were obtained. Stock cultures were maintained in this medium at 37° C. (in a humidified atmosphere containing 5% CO2).

[8] = COPD patients, background; cited from earlier work

Compound: C[C@]12CC[C@H](OS(=O)(=O)[O-])CC1=CC[C@@H]1[C@@H]2CC[C@]2(C)C(=O)CC[C@@H]12.[Na+] [DHEA-S, sodium dehydroepiandrostenone sulfate]
- Estimated DHEA-S concentration in solution (Solubility of DHEA-S; 15° C., 20 mM Na+, Ksp 1316 mM^2): 27.5 mM and 10.7 mg/mL
- Ksp at 15° C. (Solubility of DHEA-S; interpolated versus reciprocal of absolute temperature): 1316 mM^2
- Appearance of solution on storage [1]: a slight precipitate is observed on the third day
- Effect on smooth muscle proliferation without EGF stimulation (FIG. 18) (Human ASM cells): neither IBMX nor DHEA-S alone or in combinations inhibits smooth muscle proliferation

Compound: CC(C)=CCC/C(C)=C/CC/C(C)=C/CC/C=C(\C)CC/C=C(\C)CCC=C(C)C [SQ, squalene]
- Effect of supplement on DHEA-induced growth inhibition (HT-29 SF cells [2]): no such effect

Compound: C[C@]12CCC(=O)C=C1CC[C@@H]1[C@@H]2CC[C@@]2(C)[C@H]1CC[C@]2(C)O [Methyltestosterone, methyltestosterone]
- Effect on tissue adenosine (in words) (Intracellular adenosine; daily for two weeks): multi-organ depletion of adenosine

Compound: C[C@]12CC[C@H](OS(=O)(=O)[O-])CC1=CC[C@@H]1[C@@H]2CC[C@]2(C)C(=O)CC[C@@H]12.[Na+] [DHEA-S dihydrate, sodium dehydroepiandrostenone sulfate]
- Impurities ([3]; Bulk): No significant peaks
- Water ([3]; Bulk): 8.5 % w/w
- Impurities ([3]; Micronized): No significant peaks
- Water ([3]; Micronized): 8.4 % w/w
- Surface area ([3]; Micronized, five point BET): 4.9 m^2/g

Compound: C[C@]12CC[C@H](OS(=O)(=O)[O-])CC1=CC[C@@H]1[C@@H]2CC[C@]2(C)C(=O)CC[C@@H]12.[Na+] [Anhydrous DHEA-S, sodium dehydroepiandrostenone sulfate]
- Median particle size D (v, 0.5) [4]: 3.25 ™

Compound: CC(C)CCC[C@@H](C)[C@H]1CC[C@H]2[C@@H]3CC=C4C[C@@H](O)CC[C@]4(C)[C@H]3CC[C@]12C [CH, cholesterol]
- Effect of supplement on DHEA-induced growth inhibition (HT-29 SF cells [2]): no such effect
- Effect of supplement on DHEA-induced reduction of S phase cells (HT-29 SF cells [5]; 48 hours): very little effect
- Effect of supplement on DHEA-induced reduction of S phase cells (HT-29 SF cells [5]; 72 hours): no effect

Compound: C[C@]12CC[C@H](O)CC1=CC[C@@H]1[C@@H]2CC[C@]2(C)C(=O)CC[C@@H]12 [DHEA, 3β-hydroxyandrost-5-en-17-one]
- Effect on tissue adenosine (in words) (Intracellular adenosine; rat, in vivo): multi-organ depletion of adenosine
- Solubility in water (in words) (Solubility of DHEA-S; water): insoluble in water
- Cell cycle effect (in words) (HT-29 SF cells [6]): produced a G1 block in HT-29 SF cells in a time- and dose-dependent manner
- Inhibition of growth (in words) (HT-29 SF cells [7]): time- and dose-dependent inhibition of growth

Compound: C[C@@](O)(CCO)CC(=O)O [MVA, mevalonic acid]
- Effect of supplement on DHEA-induced growth inhibition (HT-29 SF cells [2]): partially overcome
- Effect of supplement on DHEA-induced reduction of S phase cells (HT-29 SF cells [5]; 48 hours): partially prevented this effect
- Effect of supplement on DHEA-induced reduction of S phase cells (HT-29 SF cells [5]; 72 hours): not after 72 hours

Compound: Nc1nc(=O)c2c([nH]1)NCC(CNc1ccc(C(=O)N[C@@H](CCC(=O)O)C(=O)O)cc1)N2C=O (mixture of isomers) [Folinic Acid, Folinic acid]
- Effect of folinic acid alone on adenosine levels (Intracellular adenosine; administered alone): increase in adenosine levels for all organs studied
- Effect of coadministered folinic acid on steroid-mediated adenosine depletion (Intracellular adenosine; coadministration with DHEA or methyltestosterone): completely abrogated steroid-mediated adenosine depletion

Compound: Cn1c(=O)c2[nH]cnc2n(C)c1=O [Theophylline, 3,7-dihydro-1,3-dimethyl-1H-purine-2,6-dione]
- Serum concentrations required for optimal effects [8]: 15000 to 20000 ng/mL
